Test results published in article PMC11714206, “Massively Parallel Screening of Toll/Interleukin‐1 Receptor (TIR)‐Derived Peptides Reveals Multiple Toll‐Like Receptors (TLRs)‐Targeting Immunomodulatory Peptides” (Advanced Science, 2024).
Several values for one entry are separate records, joined by “and”; a condition that tells them apart may be missing. Identical values can stand only once. Blank lines part the entries; values can stand above or below the substance they belong to.

Target: T1, MyD88^TIR (Homo sapiens, UniProt Q99836)
T1 construct: MyD88 (residues 148–296); 6xHis; made in house; host or cells: E. coli BL21 (DE3)
T1 sequence (Q99836 148-296): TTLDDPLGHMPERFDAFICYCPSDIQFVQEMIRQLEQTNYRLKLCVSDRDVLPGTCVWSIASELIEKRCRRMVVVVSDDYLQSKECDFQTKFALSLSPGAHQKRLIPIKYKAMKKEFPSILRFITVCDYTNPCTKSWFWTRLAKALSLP
Assay: T‐Surf phage library (P8 and P3) selection against MyD88^TIR, four rounds, NGS read counts
Type: binding
Conditions: for P3_MyD88 Rank (after) / P3_MyD88 Rank (before): P3 library; for Rank (after): P3_MyD88: rank by count after grouping; for Rank (before): P3_MyD88: rank by count before grouping; for Population: P3_MyD88 pool: P3 T-Surf phage library, 4th round of selection against MyD88 TIR, share of NGS reads
Procedure, shortened: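 Read counts come from NGS of phage pools after the fourth selection round, barcoded by 20-cycle PCR and filtered for quality ≥30. Each round: phage incubated 1 h at RT on immobilised TIR protein (5 µg mL^−1, BSA-blocked), washed, HCl-eluted and amplified in E. coli TG1.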

[1] = 4R selection against MyD88, rank after grouping
[2] = 4R selection against MyD88, rank before grouping
[3] = selection against MyD88 TIR, rank by count after grouping
[4] = selection against MyD88 TIR, rank by count before grouping
[5] = selection against MyD88, rank by count after grouping
[6] = selection against MyD88, rank by count before grouping
[7] = selection against MyD88, rank after grouping
[8] = selection against MyD88, rank before grouping

Substance: SSFREALWRLLELSKN
Rank (after): 167
Rank (before): 3222

Substance: SSFREALWRLLGLSEK
P3_MyD88 Rank (after) [3]: 279
P3_MyD88 Rank (before) [4]: 3225

Substance: SSFRECLWRLLELSKK
Population: 0.00466%

Substance: SSFRECLWSLPELSKK
P3_MyD88 Rank (after) [5]: 699
P3_MyD88 Rank (before) [6]: 3138

Substance: SSFREDLCRLLALSNK
P3_MyD88 Rank (after) [3]: 286
P3_MyD88 Rank (before) [4]: 3226

Substance: SSFREGL*RLLELSKK
Population: 0.00466%

Substance: SSFREGLCRLLELSKQ
P3_MyD88 Rank (after) [5]: 725
P3_MyD88 Rank (before) [6]: 3201

Substance: SSFREGLLRLLELSKK
Population: 0.0032%

Substance: SSFREGLRRLLELSKK
Population: 0.00291%

Substance: SSFREGLWCLRELSKK
Rank (after): 394
Rank (before): 3156

Substance: SSFREGLWRLL*LSKK
Population: 0.00291%

Substance: SSFREGLWRLLELRKK
Population: 0.0032%

Substance: SSFREGLWRLLELRKN
P3_MyD88 Rank (after) [1]: 588
P3_MyD88 Rank (before) [2]: 3169

Substance: SSFREGLWRLLELSKK
Population: 0.00466% and 0.00437% and 0.00408% and 0.00378% and 0.00349% and 0.0032% and 0.00291%

Substance: SSFREGLWRLLELSQN
P3_MyD88 Rank (after) [7]: 544
P3_MyD88 Rank (before) [8]: 3171

Substance: SSFREGLWRLLELTKK
Population: 0.0032%

Substance: SSFREGLWRLLGLRKK
P3_MyD88 Rank (after) [7]: 553
P3_MyD88 Rank (before) [8]: 3165

Substance: SSFREGLWRLLKLNKK
P3_MyD88 Rank (after) [3]: 266
P3_MyD88 Rank (before) [4]: 3181

Substance: SSFREGLWRLMALIKK
P3_MyD88 Rank (after) [1]: 600
P3_MyD88 Rank (before) [2]: 3188

Substance: SSFREGLWRLPELLR
Rank (after): 101
Rank (before): 402

Substance: SSFREGLWRLPELSRK
Rank (after): 121
Rank (before): 3183

Substance: SSFREGLWRLQELSKT
Rank (after): 158
Rank (before): 3187

Substance: SSFREGMWRLLELSKK
Population: 0.00408%

Substance: SSFREGPWRLLELSKN
P3_MyD88 Rank (after) [1]: 609
P3_MyD88 Rank (before) [2]: 3217

Substance: SSFREGQWCLMELCKK
P3_MyD88 Rank (after) [3]: 280
P3_MyD88 Rank (before) [4]: 3218

Substance: SSFREGRWRLLELSKK
Population: 0.0032%

Substance: SSFREGVWRLLEVSKK
Rank (after): 151
Rank (before): 3148

Substance: SSFREGVWRLPEMSTK
P3_MyD88 Rank (after) [1]: 660
P3_MyD88 Rank (before) [2]: 3149

Substance: SSFREQLRPALKERLP
P3_MyD88 Rank (after) [3]: 215
P3_MyD88 Rank (before) [4]: 1210

Substance: SSFRERLCRLLELSKK
P3_MyD88 Rank (after) [3]: 235
P3_MyD88 Rank (before) [4]: 3242

Substance: SSFRERLWRLLELIKK
P3_MyD88 Rank (after) [1]: 644
P3_MyD88 Rank (before) [2]: 3246

Substance: SSFRERLWRPVALSKK
P3_MyD88 Rank (after) [7]: 493
P3_MyD88 Rank (before) [8]: 3227

Second part, the substance after the results:

P3_MyD88 Rank (after) [1]: 667
P3_MyD88 Rank (before) [2]: 3223
Substance: SSFREALWRLIELSTK

Rank (after): 457
Rank (before): 3136
Substance: SSFRECLWRLEELSKK

Population: 0.00437%
Substance: SSFREDLWRLLELSKK

Population: 0.0032%
Substance: SSFREGLCRLLELSKK

Rank (after): 139
Rank (before): 3237
Substance: SSFREGLLRLLELNKK

P3_MyD88 Rank (after) [1]: 589
P3_MyD88 Rank (before) [2]: 3207
Substance: SSFREGLSRLPELSKK

P3_MyD88 Rank (after) [1]: 584
P3_MyD88 Rank (before) [2]: 3198
Substance: SSFREGLWHLLQLSLK

Rank (after): 160
Rank (before): 3197
Substance: SSFREGLWHLLVLSKK

Population: 0.0032%
Substance: SSFREGLWRLLELCKK

Population: 0.00437%
Substance: SSFREGLWRLLELGKK

Population: 0.00349%
Substance: SSFREGLWRLLELSEK

Rank (after): 145
Rank (before): 1199
Substance: SSFREGLWRLLELSET

Population: 0.00349%
Substance: SSFREGLWRLLELSKN

Population: 0.00291%
Substance: SSFREGLWRLLELSKR

P3_MyD88 Rank (after) [3]: 199
P3_MyD88 Rank (before) [4]: 3151
Substance: SSFREGLWRLLEVSQK

Population: 0.00349%
Substance: SSFREGLWRLLKLSKK

Rank (after): 458
Rank (before): 3185
Substance: SSFREGLWRLQALSKK

P3_MyD88 Rank (after) [7]: 538
P3_MyD88 Rank (before) [8]: 3160
Substance: SSFREGLWRLVYLSKK

Rank (after): 183
Rank (before): 3200
Substance: SSFREGLWSLLELSKN

P3_MyD88 Rank (after) [7]: 562
P3_MyD88 Rank (before) [8]: 3219
Substance: SSFREGMWRLMVLSKK

P3_MyD88 Rank (after) [7]: 509
P3_MyD88 Rank (before) [8]: 3216
Substance: SSFREGPWRLLALSKK
